The record followed here is ChEMBL document CHEMBL2406948, “Skeletal rearrangement of seven-membered iminosugars: synthesis of (-)-adenophorine, (-)-1-epi-adenophorine and derivatives and evaluation as glycosidase inhibitors” (Bioorg Med Chem, 2013).

pIC50, pKi: −log10 of the molar value.

The target in experiment [1] is T1, Uncharacterized protein (Sus scrofa) (UniProt I3LIR5).
T1 sequence (whole entry): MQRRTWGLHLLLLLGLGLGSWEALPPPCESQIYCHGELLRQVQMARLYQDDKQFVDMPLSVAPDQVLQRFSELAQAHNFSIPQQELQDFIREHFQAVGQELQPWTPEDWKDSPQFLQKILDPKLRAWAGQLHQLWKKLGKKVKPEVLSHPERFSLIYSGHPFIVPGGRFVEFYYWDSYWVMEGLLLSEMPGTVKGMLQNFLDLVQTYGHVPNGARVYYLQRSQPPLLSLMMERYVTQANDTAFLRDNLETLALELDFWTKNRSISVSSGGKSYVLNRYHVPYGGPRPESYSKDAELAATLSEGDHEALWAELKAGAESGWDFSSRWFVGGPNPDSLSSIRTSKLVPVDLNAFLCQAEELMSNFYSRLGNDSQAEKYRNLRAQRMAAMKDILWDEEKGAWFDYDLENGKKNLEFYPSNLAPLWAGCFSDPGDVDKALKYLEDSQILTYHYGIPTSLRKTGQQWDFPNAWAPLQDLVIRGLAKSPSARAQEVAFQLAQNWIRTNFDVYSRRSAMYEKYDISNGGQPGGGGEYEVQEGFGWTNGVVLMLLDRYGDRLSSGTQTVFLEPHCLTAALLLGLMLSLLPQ
The experiment in a line: Inhibition of pig kidney alpha, alpha trehalase at 1000 uM.

A further experiment concerns Helix pomatia. The experiment in a line: Inhibition of snail beta-mannosidase at 1000 uM.
The target in experiment [2] is T2, Tissue alpha-L-fucosidase (Bos taurus) (UniProt Q2KIM0).
T2 sequence (whole entry): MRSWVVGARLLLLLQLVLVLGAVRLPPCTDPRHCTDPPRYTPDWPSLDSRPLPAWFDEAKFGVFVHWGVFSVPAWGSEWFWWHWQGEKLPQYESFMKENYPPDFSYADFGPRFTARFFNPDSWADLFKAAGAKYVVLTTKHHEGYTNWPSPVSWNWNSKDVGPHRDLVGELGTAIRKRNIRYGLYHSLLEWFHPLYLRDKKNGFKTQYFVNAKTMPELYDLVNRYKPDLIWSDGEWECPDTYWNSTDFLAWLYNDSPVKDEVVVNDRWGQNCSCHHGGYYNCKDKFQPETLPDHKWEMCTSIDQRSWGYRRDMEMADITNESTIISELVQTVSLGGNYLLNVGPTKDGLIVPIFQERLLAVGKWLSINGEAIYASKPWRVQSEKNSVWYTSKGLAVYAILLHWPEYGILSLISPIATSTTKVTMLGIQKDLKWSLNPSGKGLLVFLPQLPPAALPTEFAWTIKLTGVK
The experiment in a line: Inhibition of bovine kidney alpha-L-fucosidase at 1000 uM.

The species named for a further experiment is Rattus norvegicus. The experiment in a line: Inhibition of rat intestinal maltase alpha-glucosidase at 1000 uM.
Experiment [3] relates to Aspergillus niger. The experiment in a line: Inhibition of Aspergillus niger amyloglucosidase at 1000 uM.
Experiment [4] has as its target T3, Glucosylceramidase (Bos taurus) (UniProt Q2KHZ8).
T3 sequence (whole entry): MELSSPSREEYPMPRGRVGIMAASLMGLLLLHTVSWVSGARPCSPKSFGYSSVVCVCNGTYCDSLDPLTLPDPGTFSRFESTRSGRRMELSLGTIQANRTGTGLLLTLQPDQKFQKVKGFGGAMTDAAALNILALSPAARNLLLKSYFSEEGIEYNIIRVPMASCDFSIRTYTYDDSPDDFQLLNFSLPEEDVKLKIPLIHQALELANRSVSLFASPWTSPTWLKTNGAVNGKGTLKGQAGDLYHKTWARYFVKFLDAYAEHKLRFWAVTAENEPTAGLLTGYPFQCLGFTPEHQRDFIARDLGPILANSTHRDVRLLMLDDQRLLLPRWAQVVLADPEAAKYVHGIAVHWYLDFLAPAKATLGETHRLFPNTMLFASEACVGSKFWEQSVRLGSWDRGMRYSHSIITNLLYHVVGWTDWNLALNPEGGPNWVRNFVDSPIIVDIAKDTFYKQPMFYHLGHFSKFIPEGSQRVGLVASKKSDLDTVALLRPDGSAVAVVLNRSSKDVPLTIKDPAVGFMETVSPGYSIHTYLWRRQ
The experiment in a line: Inhibition of bovine liver beta-glucosidase at 1000 uM.

The target of experiment [5] is Oligo-1,6-glucosidase IMA1 (Saccharomyces cerevisiae S288c) (UniProt P53051). The experiment in a line: Inhibition of yeast alpha-glucosidase at 1000 uM.
Chain of Oligo-1,6-glucosidase IMA1 (Saccharomyces cerevisiae S288c) (P53051 whole entry): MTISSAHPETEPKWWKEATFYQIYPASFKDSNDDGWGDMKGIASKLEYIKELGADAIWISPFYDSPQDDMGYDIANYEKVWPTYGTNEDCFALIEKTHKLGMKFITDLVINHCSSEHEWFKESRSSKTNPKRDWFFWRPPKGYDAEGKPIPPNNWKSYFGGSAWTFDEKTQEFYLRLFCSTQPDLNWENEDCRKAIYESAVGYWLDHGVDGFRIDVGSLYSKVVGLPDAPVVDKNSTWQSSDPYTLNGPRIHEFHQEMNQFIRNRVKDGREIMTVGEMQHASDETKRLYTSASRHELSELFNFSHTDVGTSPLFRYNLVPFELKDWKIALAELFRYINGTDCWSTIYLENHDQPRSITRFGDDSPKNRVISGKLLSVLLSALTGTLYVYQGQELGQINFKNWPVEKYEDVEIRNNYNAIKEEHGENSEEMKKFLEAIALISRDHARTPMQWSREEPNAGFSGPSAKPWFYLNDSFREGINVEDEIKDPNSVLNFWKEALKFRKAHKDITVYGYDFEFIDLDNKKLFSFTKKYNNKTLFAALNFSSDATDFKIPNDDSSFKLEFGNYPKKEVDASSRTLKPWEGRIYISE
The subject of the next experiment is Penicillium decumbens. The experiment in a line: Inhibition of Penicillium decumbens alpha-L-rhamnosidase at 1000 uM.
The next experiment concerns Prunus dulcis. The experiment in a line: Inhibition of almond beta-glucosidase at 1000 uM.
Experiment [6] is described as follows: Inhibition of rice alpha-glucosidase. Further details: species or system Oryza sativa.
The subject of experiment [7] is Aspergillus niger. The experiment in a line: Inhibition of Aspergillus niger beta-glucosidase at 1000 uM.
For a further experiment, the target named is T4, Beta-galactosidase (Bos taurus, UniProt Q58D55).
T4 sequence (Q58D55 whole entry): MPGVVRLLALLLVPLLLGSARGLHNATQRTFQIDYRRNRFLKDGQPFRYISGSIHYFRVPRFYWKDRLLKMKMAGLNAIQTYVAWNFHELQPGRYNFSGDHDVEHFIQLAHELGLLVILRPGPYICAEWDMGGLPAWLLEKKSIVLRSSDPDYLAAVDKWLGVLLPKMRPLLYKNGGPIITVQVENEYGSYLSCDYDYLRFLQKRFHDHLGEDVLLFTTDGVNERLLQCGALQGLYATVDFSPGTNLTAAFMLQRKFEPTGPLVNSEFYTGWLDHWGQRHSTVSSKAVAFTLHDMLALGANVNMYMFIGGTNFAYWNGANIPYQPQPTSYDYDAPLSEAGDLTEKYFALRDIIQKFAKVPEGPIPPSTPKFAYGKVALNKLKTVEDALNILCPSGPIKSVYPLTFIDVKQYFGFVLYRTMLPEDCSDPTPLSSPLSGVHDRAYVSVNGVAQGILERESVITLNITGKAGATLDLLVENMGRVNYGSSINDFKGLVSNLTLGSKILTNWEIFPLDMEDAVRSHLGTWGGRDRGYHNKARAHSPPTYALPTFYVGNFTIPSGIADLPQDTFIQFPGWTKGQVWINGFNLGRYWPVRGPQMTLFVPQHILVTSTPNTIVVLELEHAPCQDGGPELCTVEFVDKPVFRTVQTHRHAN
The experiment in a line: Inhibition of bovine liver beta-galactosidase.

Experiment [8] addresses Alpha-galactosidase (Coffea arabica) (UniProt Q42656). The experiment in a line: Inhibition of coffee bean alpha-galactosidase at 1000 uM.
For another experiment, the system named is Canavalia ensiformis. The experiment in a line: Inhibition of jack beans alpha-mannosidase at 1000 uM.
The target of experiment [9] is T5, Tissue alpha-L-fucosidase (Bos taurus, UniProt Q2KIM0).
T5 sequence (Q2KIM0 whole entry): T2 sequence (whole entry)
The experiment is described as follows: Inhibition of bovine kidney alpha-L-fucosidase.

Chain of Alpha-galactosidase (Coffea arabica) (Q42656 16-378 limits assumed): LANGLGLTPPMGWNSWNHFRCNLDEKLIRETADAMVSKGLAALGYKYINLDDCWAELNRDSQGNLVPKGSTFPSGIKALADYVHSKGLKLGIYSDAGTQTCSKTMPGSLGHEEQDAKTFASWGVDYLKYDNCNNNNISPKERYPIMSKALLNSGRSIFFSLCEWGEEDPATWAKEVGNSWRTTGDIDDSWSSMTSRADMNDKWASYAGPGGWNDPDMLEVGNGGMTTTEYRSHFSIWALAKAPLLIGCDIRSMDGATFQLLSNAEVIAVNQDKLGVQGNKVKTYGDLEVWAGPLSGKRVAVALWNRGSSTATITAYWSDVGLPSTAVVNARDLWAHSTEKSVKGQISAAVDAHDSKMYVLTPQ

`CCC[C@@H]1NC[C@@H](O)[C@@H](O)[C@H](O)[C@H]1O`: the inhibition was found to be 0% in [1]; 3.6% in the experiment with Helix pomatia; 0% in [2]; 0% in the experiment listed under Rattus norvegicus; 0% in the experiment with Aspergillus niger [3]; 6% in experiment [4]. Further, the inhibition was determined as 0% in experiment [5]; 14.8% in the experiment on Penicillium decumbens; 0% with Prunus dulcis; 9.1% in the experiment with Aspergillus niger [7]; 46% in experiment [8]; 1.6% with Canavalia ensiformis. Also, the negative-log IC50 (pIC50) in experiment [6] was 3.08; at Beta-galactosidase it was 3.27.
Compound `O[C@H]1[C@H](O)[C@@H](O)CNC[C@H]1O` showed a negative-log Ki (pKi) in experiment [9] of 5.34.
